The text below walks through data of patent publication US11738007B2, “Treatment of glaucoma using endothelin receptor antagonists” (Perfuse Therapeutics, Inc., priority 2019, dated 2023).

As usually defined, the logD is lipophilicity at a set pH, counting ionised and neutral species. What is called IC50 is the point on the concentration scale where inhibition reaches its midpoint. Low values mean higher potency, high ones lower potency. In general, solubility refers to how much of the substance goes into solution per volume.

Values joined by “and” are separate entries in the source; they are usually repeats but may differ in a detail not shown here. Equal entries are not always repeated. Where two headings read alike, the source gives them in different places. Bounds are passed on as bounds.

One data set addresses T1, ETA receptor (Homo sapiens, UniProt P25101).
T1 sequence (P25101 21-427): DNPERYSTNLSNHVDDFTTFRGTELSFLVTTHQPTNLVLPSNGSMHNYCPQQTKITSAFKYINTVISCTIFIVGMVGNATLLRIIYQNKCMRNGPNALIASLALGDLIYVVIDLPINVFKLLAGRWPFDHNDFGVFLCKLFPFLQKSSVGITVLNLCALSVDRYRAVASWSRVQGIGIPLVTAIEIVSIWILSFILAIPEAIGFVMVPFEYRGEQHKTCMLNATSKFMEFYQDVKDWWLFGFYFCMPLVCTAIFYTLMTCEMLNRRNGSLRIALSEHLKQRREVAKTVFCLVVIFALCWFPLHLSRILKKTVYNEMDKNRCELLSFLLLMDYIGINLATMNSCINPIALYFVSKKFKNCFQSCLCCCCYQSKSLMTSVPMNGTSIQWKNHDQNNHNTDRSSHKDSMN
Nature of the data set: Functional potency for ETA receptor. To be noted: rating in words. Format: biochemical. The text has this:
(§1) In the above table, the physicochemical data, e.g., solubility, were obtained following standard protocols known in the field (see, e.g., Reis et al., Mini Rev Med Chem., 2010, 10(11):1071-6; Avdeef et al., Expert Opin Drug Metab Toxicol., 2005, 1(2):325-42; Bharate et al., Comb Chem High Throughput Screen., 2016, 19(6):461-9; and Jain et al., J Pharm Biomed Anal., 2013, 86:11-35); and the biochemical data, i.e., potency for ETA/ETB, were obtained following the protocols known in the field (see, e.g., Kirkby et al., Br J Pharmacol., 2008, 153(6):1105-19; and Maguire et al., Br J Pharmacol., 2014, 171(24):5555-72).

In data set [1] the test system is elevated intraocular pressure (IOP). Nature of the data set: Morrison's rat model of glaucoma (elevated IOP). Format: in vivo, Brown Norway rats. To be noted: topical eye drops 100 μg per dose, five days a week, four weeks. The text has this: Adult male and female retired breeder Brown Norway rats (approximate age groups of 8 to 11 months) were obtained from Envigo (Indianapolis, Ind.). Baseline IOP measurements and pattern electroretinogram (PERG) amplitudes were collected prior to the surgery for elevation of IOP (to ensure that the IOP and PERG amplitudes were in the expected range of values). IOP was elevated in one eye (left eye) of the rats, while the corresponding right eyes served as contralateral controls. The Morrison method to elevate IOP in rats was carried out by injection of 50 μL of hypertonic saline through the episcleral veins to sclerose the trabecular meshwork. IOP was measured twice a week throughout the entire duration of the experiment. […] After detecting an elevation of IOP for two consecutive days, topical administration of eye drops (20 μL (100 μg) per dose of the tested compounds in the IOP elevated eye) was commenced and carried out for five days a week for a total of four weeks. In the 4th week of treatment, PERG analysis was carried out and rats were sacrificed by an overdose of pentobarbital (Fatal-Plus). Aqueous humor was collected from the rat eyes, frozen and shipped for analysis. Retinal flat mounts were prepared, immunostained with the RGC marker, Brn3a antibody and surviving RGCs were counted in two eccentricities (central and peripheral). For this study, the Morrison's model was used to induce ocular hypertension in adult male retired breeder Brown Norway rats as previously described by Morrison et al., (Morrison J C, Moore […], Gold […], Johnson E C. A rat model of chronic pressure-induced optic nerve damage. Exp Eye Res. 1997; 64(1):85-96). The immunostained retinal flat mounts were obtained to measure the retinal ganglion cell (RGC) counts. To obtain immunostained retinal flat mounts, the animals were euthanized after the treatments and then their eyes were enucleated. The eye cups were fixed overnight at 4° C. in 4% paraformaldehyde (PFA) and retinal flat mounts were prepared for collecting images. The retinal ganglion cell (RGC) counting was conducted using the images of immunostained retinal flat mounts. The images were uploaded to ImageJ, a photo editor designed for biology research (Rasband, 1997-2018) and the labeled retinal ganglion cells were counted manually in two eccentricities (central and peripheral). […] Pattern ERG (PERG) was used to assess the RGC function. […] Briefly, PERG signals were acquired from a DTL-plus electrode placed on the lower part of the corneal surface and the PERG waves were analyzed using the EMWIN software (LKC). The difference between the amplitude of the major positive (P1) and negative (N2) waves were calculated to […] amplitude.

Data set [2] in a line: Pharmacokinetics after topical or oral administration in the rat. Format: in vivo, Brown Norway rats. The method, then: After the administrations, the animals (N=2) were euthanized at different time points (e.g. 4 and 8 hours) and tissues were collected for analysis. List of tissues collected include plasma, retina/retinal pigment epithelium (RPE)/choroid, vitreous humor and aqueous humor.

The nature of another data set: LogD. Format: physicochemical. To be noted: pH 7.4.
From the text: as §1

In a further data set the target is T2, ETB receptor (Homo sapiens, UniProt P24530).
T2 sequence (P24530 27-442): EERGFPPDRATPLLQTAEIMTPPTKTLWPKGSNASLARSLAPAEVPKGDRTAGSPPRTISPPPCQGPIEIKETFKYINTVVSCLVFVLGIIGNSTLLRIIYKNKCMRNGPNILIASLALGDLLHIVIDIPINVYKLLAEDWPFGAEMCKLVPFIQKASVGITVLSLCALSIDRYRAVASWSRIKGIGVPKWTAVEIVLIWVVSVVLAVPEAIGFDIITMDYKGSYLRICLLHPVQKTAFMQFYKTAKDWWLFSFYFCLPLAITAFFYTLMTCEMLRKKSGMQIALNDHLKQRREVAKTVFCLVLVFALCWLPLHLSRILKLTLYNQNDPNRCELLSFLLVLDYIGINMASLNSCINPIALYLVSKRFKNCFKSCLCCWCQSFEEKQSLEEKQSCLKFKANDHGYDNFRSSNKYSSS
Put plainly: Functional potency for ETB receptor. Format: biochemical.
From the text: as §1

A further data set is described as follows: Stability in solid state. The class given is physicochemical. As to conditions: 2 h @ l25° C.
From the text: as §1

Another data set deals with ETA/ETB receptor. Put plainly: ETA/ETB selectivity (specificity). The class given is biochemical. To be noted: ETA versus ETB, rating in words.
From the text: as §1

A short description of a further data set: Solubility. Format: physicochemical.
From the text: as §1

A short description of the next data set: Permeability (PAMPA). The class given is in vitro ADME. As to conditions: rating in words.
From the text: as §1
In general terms: PAMPA measures passive passage across an artificial lipid membrane.

For the molecule `CCCCCS(=O)(=O)N(CCC)CCN1C[C@H](c2ccc3c(c2)OCO3)[C@@H](C(=O)O)[C@@H]1c1ccc(OC)c(F)c1` [A-182086, (2R,3R,4S)-4-(2H-1,3-benzodioxol-5-yl)-2-(3-fluoro-4-methoxyphenyl)-1-[2-(N-propylpentane-1-sulfonamido)ethyl]pyrrolidine-3-carboxylic acid], the “Functional Potency for ETA and ETB Receptors (rating)” value at ETA receptor is on record as “High potency”. Besides, in [1], the “RGC function, pattern electroretinogram (PERG) changes” value is recorded as “maintained RGC function” and the “Retinal ganglion cell (RGC) counts, peripheral retina” value is “prevented RGC loss”. The “Detection in retina/RPE/choroid” value in data set [2] (oral, 50 mg/kg) is reported as “detectable”. For the same molecule, the “Detection in retina/RPE/choroid, aqueous humor and vitreous humor” value in data set [2] (topical eye drop 100 μg, 4 and 8 hours post-administration) is “detected”. The log distribution coefficient (logD) in “LogD” worked out at 2.3. Further, on ETB receptor, the midpoint of inhibition, the IC50, lay at 3.48 nM. Besides, in “Stability in solid state”, the “Stability in Solid State (rating)” value was “unstable” and the “Stability in Solid State, remaining” value was “about 87% remaining/”. The “Specificity (rating)” value in the data set on ETA/ETB receptor is “Low specificity”. Besides, the solubility in “Solubility” (aqueous buffer, pH 7, amorphous form, read-out: Solubility at pH 7) was 173 µg/mL and 298 µM. Also, the solubility in “Solubility” (ethyl acetate, organic solvent or mixture, read-out: Solubility in Ethyl Acetate) was > 10600 µg/mL and > 18400 µM. Besides, the “Solubility in Ethyl Acetate (rating)” value in the data set “Solubility” (ethyl acetate, rating in words) is given as “Good”. For the same molecule, the solubility in the data set “Solubility” (pH 2, simulated gastric fluid, read-out: Solubility at pH 2) was 92.5 µg/mL and 160 µM. Also, the “Permeability (rating)” value in the data set “Permeability (PAMPA)” is reported as “Mid-High”.
